From ChEMBL document CHEMBL5584296, “Discovery of Novel Pyrimidine-Based Derivatives as Nav1.2 Inhibitors with Efficacy in Mouse Models of Epilepsy” (J Med Chem, 2024)

target: T1, Sodium channel protein type 2 subunit alpha (Homo sapiens, UniProt Q99250); test: Inhibition of human Nav1.2 expressed in HEK293 cells assessed as test to control ratio at 1 uM measured after 5 mins by whole cell voltage clamp electrophysiological analysis; format: cell-based
T1 sequence (Q99250 whole entry, looked up): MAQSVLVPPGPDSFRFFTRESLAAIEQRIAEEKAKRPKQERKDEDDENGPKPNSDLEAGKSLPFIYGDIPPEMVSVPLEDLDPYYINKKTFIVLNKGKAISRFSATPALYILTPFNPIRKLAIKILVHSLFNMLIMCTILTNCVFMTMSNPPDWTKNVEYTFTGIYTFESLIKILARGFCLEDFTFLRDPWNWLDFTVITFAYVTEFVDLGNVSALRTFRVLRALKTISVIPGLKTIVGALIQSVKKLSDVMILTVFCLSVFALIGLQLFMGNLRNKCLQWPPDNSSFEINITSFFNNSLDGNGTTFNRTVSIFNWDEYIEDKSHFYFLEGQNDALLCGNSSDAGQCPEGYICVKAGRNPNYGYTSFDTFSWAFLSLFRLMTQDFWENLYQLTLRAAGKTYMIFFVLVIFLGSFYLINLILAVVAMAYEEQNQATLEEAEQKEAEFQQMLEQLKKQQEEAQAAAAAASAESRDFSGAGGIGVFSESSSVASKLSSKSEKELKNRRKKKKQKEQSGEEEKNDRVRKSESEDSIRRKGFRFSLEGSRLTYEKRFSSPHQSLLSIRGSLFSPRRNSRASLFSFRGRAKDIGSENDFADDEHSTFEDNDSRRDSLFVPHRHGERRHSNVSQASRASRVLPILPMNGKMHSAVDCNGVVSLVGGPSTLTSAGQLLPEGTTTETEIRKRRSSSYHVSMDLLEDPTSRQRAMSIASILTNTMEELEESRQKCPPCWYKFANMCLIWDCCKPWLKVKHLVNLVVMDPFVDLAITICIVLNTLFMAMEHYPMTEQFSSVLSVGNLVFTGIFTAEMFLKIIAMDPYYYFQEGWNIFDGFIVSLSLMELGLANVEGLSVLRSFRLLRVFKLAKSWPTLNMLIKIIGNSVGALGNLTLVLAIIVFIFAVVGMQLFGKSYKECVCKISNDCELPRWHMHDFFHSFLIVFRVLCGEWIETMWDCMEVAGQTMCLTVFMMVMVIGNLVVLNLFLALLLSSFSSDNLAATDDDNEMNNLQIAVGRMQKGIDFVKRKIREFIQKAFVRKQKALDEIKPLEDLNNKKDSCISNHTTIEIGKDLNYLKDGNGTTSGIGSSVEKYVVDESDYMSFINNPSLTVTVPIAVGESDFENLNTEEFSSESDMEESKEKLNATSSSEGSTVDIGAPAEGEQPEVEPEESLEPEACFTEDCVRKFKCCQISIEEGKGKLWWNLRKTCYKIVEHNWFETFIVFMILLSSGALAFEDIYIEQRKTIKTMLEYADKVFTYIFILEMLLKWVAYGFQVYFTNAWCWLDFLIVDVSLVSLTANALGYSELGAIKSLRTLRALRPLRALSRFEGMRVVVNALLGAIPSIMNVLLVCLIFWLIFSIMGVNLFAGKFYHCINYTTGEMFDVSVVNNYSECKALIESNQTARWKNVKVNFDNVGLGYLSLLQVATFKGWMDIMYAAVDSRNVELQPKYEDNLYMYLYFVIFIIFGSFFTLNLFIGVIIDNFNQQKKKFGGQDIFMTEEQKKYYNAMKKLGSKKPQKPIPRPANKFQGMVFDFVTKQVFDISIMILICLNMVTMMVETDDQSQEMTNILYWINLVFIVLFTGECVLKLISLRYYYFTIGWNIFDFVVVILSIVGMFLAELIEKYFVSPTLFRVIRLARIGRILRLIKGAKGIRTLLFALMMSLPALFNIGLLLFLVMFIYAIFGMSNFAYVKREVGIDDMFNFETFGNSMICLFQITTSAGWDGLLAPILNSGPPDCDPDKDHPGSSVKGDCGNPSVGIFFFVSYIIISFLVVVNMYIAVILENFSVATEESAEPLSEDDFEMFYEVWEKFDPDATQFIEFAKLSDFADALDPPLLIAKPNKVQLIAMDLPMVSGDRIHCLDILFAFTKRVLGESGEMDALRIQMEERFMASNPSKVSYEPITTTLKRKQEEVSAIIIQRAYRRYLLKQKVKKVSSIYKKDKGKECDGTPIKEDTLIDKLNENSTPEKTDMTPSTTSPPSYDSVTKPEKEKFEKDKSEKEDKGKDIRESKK

| Structure (SMILES) | T/C |
| --- | --- |
| COc1cccc(-c2cc(NCCc3ccc4c(c3)OCO4)nc(N)n2)c1 | 0.34 |
| COc1cccc(-c2cc(N3CCC4(CCOCC4)C3)nc(N)n2)c1 | 0.94 |
| COc1cccc(-c2cc(N3CCc4ccccc4C3)nc(N)n2)c1 | 0.35 |
| COc1cccc(-c2cc(N3CCCc4ccc(C)cc4C3)ncn2)c1 | 0.43 |

Other lines, results leading:

| T/C | Structure (SMILES) |
| --- | --- |
| 0.68 | COc1cccc(-c2cc(N3CC4CC(C3)c3ccccc34)nc(NS(=O)(=O)c3cccc(C)c3)n2)c1 |
| 0.46 | Nc1nc(-c2ccc(F)cc2)cc(N2CCCc3ccccc3C2)n1 |
| 0.72 | Nc1nc(-c2ccc3c(c2)OCCC3)cc(N2CCCc3ccccc3C2)n1 |
| 0.24 | Cc1cccc(-c2cc(N3CCCc4ccccc4C3)nc(N)n2)c1 |
| 0.84 | COc1cccc(-c2cc(N3CC4CC(C3)c3ccccc34)nc(NS(=O)(=O)c3ccc(C)cc3C)n2)c1 |
| 0.03 | COc1cccc(-c2cc(N3CCCc4ccc(F)cc4C3)nc(N)n2)c1 |
| 0.71 | COc1cccc(-c2cc(N3CC4CC(C3)c3ccccc34)nc(NS(=O)(=O)c3ccc(C)cc3)n2)c1 |

target: T1, Sodium channel protein type 2 subunit alpha; test: Inhibition of human Nav1.2 expressed in HEK293 cells assessed as test to control ratio at 10 uM measured after 5 mins by whole cell voltage clamp electrophysiological analysis; format: cell-based

| Structure (SMILES) | T/C |
| --- | --- |
| COc1cccc(-c2cc(NCCc3ccc4c(c3)OCO4)nc(N)n2)c1 | 0.05 |
| COc1cccc(-c2cc(N3CCC4(CCOCC4)C3)nc(N)n2)c1 | 0.57 |
| COc1cccc(-c2cc(N3CCc4ccccc4C3)nc(N)n2)c1 | 0.13 |
| COc1cccc(-c2cc(N3CCCc4ccc(C)cc4C3)ncn2)c1 | 0.13 |

The next lines start with the values.

| T/C | Structure (SMILES) |
| --- | --- |
| 0.33 | COc1cccc(-c2cc(N3CC4CC(C3)c3ccccc34)nc(NS(=O)(=O)c3cccc(C)c3)n2)c1 |
| 0.18 | Nc1nc(-c2ccc(F)cc2)cc(N2CCCc3ccccc3C2)n1 |
| 0.07 | Nc1nc(-c2ccc3c(c2)OCCC3)cc(N2CCCc3ccccc3C2)n1 |
| 0.03 | Cc1cccc(-c2cc(N3CCCc4ccccc4C3)nc(N)n2)c1 |
| 0.45 | COc1cccc(-c2cc(N3CC4CC(C3)c3ccccc34)nc(NS(=O)(=O)c3ccc(C)cc3C)n2)c1 |
| 0 | COc1cccc(-c2cc(N3CCCc4ccc(F)cc4C3)nc(N)n2)c1 |
| 0.31 | COc1cccc(-c2cc(N3CC4CC(C3)c3ccccc34)nc(NS(=O)(=O)c3ccc(C)cc3)n2)c1 |

target: T1, Sodium channel protein type 2 subunit alpha; test: Inhibition of human Nav1.2 expressed in HEK293 cells assessed as test to control ratio at 0.1 uM measured after 5 mins by whole cell voltage clamp electrophysiological analysis; format: cell-based

| Structure (SMILES) | T/C |
| --- | --- |
| COc1cccc(-c2cc(NCCc3ccc4c(c3)OCO4)nc(N)n2)c1 | 0.86 |
| COc1cccc(-c2cc(N3CCC4(CCOCC4)C3)nc(N)n2)c1 | 0.97 |
| COc1cccc(-c2cc(N3CCc4ccccc4C3)nc(N)n2)c1 | 0.68 |
| COc1cccc(-c2cc(N3CCCc4ccc(C)cc4C3)ncn2)c1 | 0.8 |

The next lines start with the values.

| T/C | Structure (SMILES) |
| --- | --- |
| 0.9 | Nc1nc(-c2ccc(F)cc2)cc(N2CCCc3ccccc3C2)n1 |
| 0.85 | Cc1cccc(-c2cc(N3CCCc4ccccc4C3)nc(N)n2)c1 |
| 0.84 | COc1cccc(-c2cc(N3CCCc4ccc(F)cc4C3)nc(N)n2)c1 |
